From patent publication US10221163B2 (priority 2015, dated 2019)
Read-outs that look alike come from different tables or passages of the source.

Legend:
IMP-1 = IMP-1 (Serratia marcescens, UniProt P52699); assay: biochemical; format: biochemical; details: fluorescence assay, CCF2-FA substrate, 2 pM enzyme, 2 hours at 25° C.; read-out: IMP-1 IC50
Procedure, shortened: (§1)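 Inhibitor was mixed with the metallo-β-lactamase and CCF2-FA. After 2 hours at 25° C, fluorescence of the coumarin–fluorescein cephalosporin substrate was read. IC50 was calculated with a 4-parameter fit.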

NDM-1 = NDM-1 (Klebsiella pneumoniae, UniProt C7C422); assay: biochemical; format: biochemical; details: fluorescence assay, CCF2-FA substrate, 1 pM enzyme, 2 hours at 25° C.; read-out: NDM-1 IC50
Procedure, shortened: as §1

VIM-1 = VIM-1 (Pseudomonas aeruginosa (strain ATCC 15692 / DSM 22644 / CIP 104116 / JCM 14847 / LMG 12228 / 1C / PRS 101 / PAO1), UniProt A0A0F7KYQ8); assay: biochemical; details: CCF2-FA substrate, 30 pM enzyme, 2 hours at 25° C.
Procedure, shortened: as §1

[1] = tested on: Escherichia coli expressing NDM-1 (CLB30005, CLB30016); format: cell-based; details: with imipenem 1 μg/ml; for Escherichia coli expressing NDM-1 (CLB30016) MITC95: 95% inhibition of bacterial growth; for Escherichia coli MITC95: NDM-1 strain, 95% inhibition of growth
Procedure, shortened: (§2)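 Colonies grown overnight on blood agar at 35° C were suspended in saline, diluted 1:100 into 1.1×CAMHB and dispensed. Imipenem was added to 1 μg/ml, then test compound. After 22 hours to 24 hours at 35° C, absorbance was recorded.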

[2] = tested on: Klebsiella pneumoniae expressing VIM-1 (IHMA599644); format: cell-based; details: for Klebsiella pneumoniae expressing VIM-1 (IHMA599644) MITC95: with imipenem 1 μg/ml, 95% inhibition of bacterial growth; for Klebsiella pneumoniae MITC95: VIM-1 strain IHMA599644, with imipenem 1 μg/ml, 95% inhibition of growth
Procedure, shortened: as §2

[3] = tested on: Serratia marcescens expressing IMP-1 (CL5741); format: cell-based; details: for Serratia marcescens expressing IMP-1 (CL5741) MITC95: with imipenem 1 μg/ml, 95% inhibition of bacterial growth; for Serratia marcescens MITC95: IMP-1 strain CL5741, with imipenem 1 μg/ml, 95% inhibition of growth
Procedure, shortened: as §2

[4] = tested on: Pseudomonas aeruginosa efflux+ (MB9798), IMP-1; format: cell-based; parameters: Concentration of metallo-β-lactamase inhibitor which restores susceptibility of efflux + (MB9798) strain to imipenem: unit not given here; details: C, D serine β-lactamase inhibitor closely related to relebactam; for P. aeruginosa expressing IMP-1, efflux + (MB9798) MITC95: concentration restoring susceptibility to imipenem at 2 μg/mL in the presence of a class A; for Concentration of metallo-β-lactamase inhibitor which restores susceptibility of efflux + (MB9798) strain to imipenem: imipenem at 2 μg/mL, in the presence of a class A
Procedure, shortened: (§3)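 PAO1 pair, broth microdilution; fixed β-lactam (imipenem/ceftazidime) at ~CLSI breakpoint + fixed class A/C BLI for AmpC; serial MBLi titration; endpoint = MBLi conc. restoring susceptibility; MB9798:MB9799 ratio = efflux liability.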

[5] = tested on: Pseudomonas aeruginosa efflux− (MB9799), IMP-1; format: cell-based; details: C, D serine β-lactamase inhibitor closely related to relebactam; for P. aeruginosa expressing IMP-1, efflux − (MB9799) MITC95: concentration restoring susceptibility to imipenem at 2 μg/mL in the presence of a class A; for Concentration of metallo-β-lactamase inhibitor which restores susceptibility of efflux − (MB9799) strain to imipenem: imipenem at 2 μg/mL, in the presence of a class A
Procedure, shortened: as §3

[6] = tested on: Pseudomonas aeruginosa MB9798 vs MB9799
Procedure, shortened: as §3

[7] = fluorescence assay, read-out: VIM-1 IC50
[8] = ratio MITC95 PA_9798/MITC95 PA_9799
[9] = fold difference between efflux+ (MB9798) and efflux− (MB9799) strains, imipenem at 2 μg/mL

Chain of IMP-1 (P52699 whole entry, looked up, species assumed): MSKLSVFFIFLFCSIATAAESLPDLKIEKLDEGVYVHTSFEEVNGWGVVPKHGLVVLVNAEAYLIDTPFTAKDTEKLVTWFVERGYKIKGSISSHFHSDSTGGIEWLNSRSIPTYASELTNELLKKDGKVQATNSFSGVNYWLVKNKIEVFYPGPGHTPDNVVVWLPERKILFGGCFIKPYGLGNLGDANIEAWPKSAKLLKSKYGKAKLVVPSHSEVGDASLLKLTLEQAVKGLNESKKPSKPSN
Chain of NDM-1 (C7C422 whole entry, looked up, species assumed): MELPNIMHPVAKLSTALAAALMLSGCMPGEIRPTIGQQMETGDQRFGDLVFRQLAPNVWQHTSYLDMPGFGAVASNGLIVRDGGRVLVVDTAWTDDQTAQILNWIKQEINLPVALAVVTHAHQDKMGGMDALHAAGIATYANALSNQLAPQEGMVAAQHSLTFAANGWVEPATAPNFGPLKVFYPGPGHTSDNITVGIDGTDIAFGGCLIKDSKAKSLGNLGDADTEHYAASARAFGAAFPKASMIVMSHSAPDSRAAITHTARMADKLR

| SMILES | IC50 (IMP-1) [nM] | IC50 (NDM-1) [nM] | IC50 (VIM-1; [7]) [nM] | Escherichia coli expressing NDM-1 (CLB30016) MITC95 [1] [µM] | Klebsiella pneumoniae expressing VIM-1 (IHMA599644) MITC95 [2] [µM] | Serratia marcescens expressing IMP-1 (CL5741) MITC95 [3] [µM] | P. aeruginosa expressing IMP-1, efflux + (MB9798) MITC95 [4] [µM] | P. aeruginosa expressing IMP-1, efflux − (MB9799) MITC95 [5] [µM] | Efflux ratio [6, 8] | IC50 (VIM-1; VIM-1 IC50, fluorescence assay) [nM] | Escherichia coli MITC95 [1] [µM] | Klebsiella pneumoniae MITC95 [2] [µM] | Serratia marcescens MITC95 [3] [µM] | Concentration of metallo-β-lactamase inhibitor which restores susceptibility of efflux + (MB9798) strain to imipenem [4] | Concentration of metallo-β-lactamase inhibitor which restores susceptibility of efflux − (MB9799) strain to imipenem [5] | Efflux ratio [6, 9] |
| --- | --- | --- | --- | --- | --- | --- | --- | --- | --- | --- | --- | --- | --- | --- | --- | --- |
| NCCNS(=O)(=O)c1ccc(-c2cccc3sc(N)nc23)c(-c2nn[nH]n2)c1S(N)(=O)=O [Example 145, 4-(2-aminobenzo[d]thiazol-4-yl)-N1-(2-aminoethyl)-3-(2H-tetrazol-5-yl)benzene-1,2-disulfonamide] | 0.221 | 0.0343 | 0.182 | 0.7813 | 1.563 | 0.7813 | 0.3906 | 0.7813 | 0.50 |  |  |  |  |  |  |  |
| Nc1ccc(-c2ccc(S(=O)(=O)NC[C@@]3(N)CCNC3)c(S(N)(=O)=O)c2-c2nn[nH]n2)cn1 [Example 369, (R)-4-(6-aminopyridin-3-yl)-N1-((3-aminopyrrolidin-3-yl)methyl)-3-(2H -tetrazol-5-yl)benzene-1,2-disulfonamide] | 0.508 | 0.276 |  |  |  |  | 1.563 | 1.563 | 1.00 | 0.302 | 0.3906 | 3.125 | 0.7813 |  |  |  |
| CC(C)(N)CNS(=O)(=O)c1ccc(-c2cccc3sc(N)nc23)c(-c2nnn[nH]2)c1S(N)(=O)=O [Example 87, N^1-(2-amino-2-methylpropyl)-4-(2-aminobenzo[d]thiazol-4-yl)-3-(1H-tetrazol-5-yl)benzene-1,2-disulfonamide] | 0.261 | 0.0367 | 0.197 | 3.125 | 6.25 | 3.125 | 0.7813 | 1.563 | 0.50 |  |  |  |  |  |  |  |
| NCCCNS(=O)(=O)c1ccc(-c2cccc3sc(N)nc23)c(-c2nnn[nH]2)c1S(N)(=O)=O.O=C(O)C(F)(F)F [Example 90, 3-(4-(2-aminobenzo[d]thiazol-4-yl)-2-sulfamoyl-3-(1H-tetrazol-5-yl)phenylsulfonamido)propan-1-aminium 2,2,2-trifluoroacetate] | 0.411 | 0.0795 | 0.27 | 3.125 | 3.125 | 1.563 | 0.7813 | 1.563 | 0.50 |  |  |  |  |  |  |  |
| NC[C@H](N)CNS(=O)(=O)c1ccc(-c2cccc(-c3c[nH]c(N)n3)c2)c(-c2nn[nH]n2)c1S(N)(=O)=O [Example 434] | 1.53 | 0.2 | 0.337 |  |  |  |  |  |  |  | 0.7813 | 1.563 | 1.563 | 1.563 | 0.7813 | 2.00 |
| C[C@H](CN)NS(=O)(=O)c1ccc(-c2ccc(N)nc2)c(-c2nn[nH]n2)c1S(N)(=O)=O [Example 393, (R)—N^1-(1-aminopropan-2-yl)-4-(6-aminopyridin-3-yl)-3-(2H-tetrazol-5-yl)benzene-1,2-disulfonamide] | 0.0629 | 0.0219 | 0.0454 |  |  |  |  |  |  |  | 0.651 | 2.083 | 1.042 | 0.7813 | 1.042 | 0.75 |
| Nc1nc2c(-c3ccc(S(N)(=O)=O)c(S(N)(=O)=O)c3-c3nn[nH]n3)cccc2s1 [Example 143, 4-(2-aminobenzo[d]thiazol-4-yl)-3-(2H-tetrazol-5-yl)benzene-1,2-disulfonamide] | 0.266 | 0.0849 | 0.22 | 3.125 | 12.5 | 1.563 | 0.7813 | 1.563 | 0.50 |  |  |  |  |  |  |  |
| Nc1nc2c(-c3ccc(S(=O)(=O)N[C@H]4CN[C@H](CO)C4)c(S(N)(=O)=O)c3-c3nnn[nH]3)cccc2s1 [Example 78, 4-(2-amino-1,3-benzothiazol-4-yl)-N1-[(3R,5S)-5-(hydroxymethyl)pyrrolidin-3-yl]-3-(1H-tetrazol-5-yl)benzene-1,2-disulfonamide] | 0.234 | 0.0225 |  | 3.125 | 3.125 | 1.563 | 0.7813 | 1.563 | 0.50 | 0.183 |  |  |  |  |  |  |
| Nc1nc2c(-c3ccc(S(=O)(=O)NCC4CCN4)c(S(N)(=O)=O)c3-c3nn[nH]n3)cccc2[nH]1 (stereo not drawn) [Example 207, 4-(2-amino-1H-benzo[d]imidazol-4-yl)-N1-(azetidin-2-ylmethyl)-3-(2H-tetrazol-5-yl)benzene-1,2-disulfonamide] | 0.999 | 0.274 |  | 3.125 | 3.125 | 1.563 | 3.125 | 1.563 | 2.00 | 0.69 |  |  |  |  |  |  |
| NCC(CN)NS(=O)(=O)c1ccc(-c2cccc(-c3cnc(N)[nH]3)n2)c(-c2nnn[nH]2)c1S(N)(=O)=O [Example 438, 4-(6-(2-Amino-1H-imidazol-5-yl)pyridin-2-yl)-N^1-(1,3-diaminopropan-2-yl)-3-(1H-tetrazol-5-yl)benzene-1,2-disulfonamide] | 17.9 | 2.04 |  |  |  |  |  |  |  | 3.91 | 3.125 | 3.125 | 3.125 | 6.25 | 3.125 | 2.00 |
